Results published in US11739100B2, “2,3-dihydro-1h-imidazo{1,2-a}pyrimidin-5-one and this 1,2,3,4-tetrahydropyrimido{1,2-a}pyrimidin-6-one derivatives comprising a substituted morpholine, preparation thereof and pharmaceutical use thereof” (SANOFI, priority 2012, dated 2023).

Biological target: T1, recombinant Vps34 (Homo sapiens, UniProt Q8NEB9)
T1 construct: purchased Invitrogen PV5126
Experiment: Phosphorylation of phosphatidylinositol (PI) by Vps34 in vitro, ADP detected by TR-FRET (HTRF Transcreener ADP)
Assay type: biochemical
Conditions: 10 μM ATP, 55 μg/ml PI, approximately 3 nM Vps34, 1 hour at ambient temperature; absolute IC50, mean of two independent experiments; read-out: IC50 activity range

T1 sequence (Q8NEB9 whole entry): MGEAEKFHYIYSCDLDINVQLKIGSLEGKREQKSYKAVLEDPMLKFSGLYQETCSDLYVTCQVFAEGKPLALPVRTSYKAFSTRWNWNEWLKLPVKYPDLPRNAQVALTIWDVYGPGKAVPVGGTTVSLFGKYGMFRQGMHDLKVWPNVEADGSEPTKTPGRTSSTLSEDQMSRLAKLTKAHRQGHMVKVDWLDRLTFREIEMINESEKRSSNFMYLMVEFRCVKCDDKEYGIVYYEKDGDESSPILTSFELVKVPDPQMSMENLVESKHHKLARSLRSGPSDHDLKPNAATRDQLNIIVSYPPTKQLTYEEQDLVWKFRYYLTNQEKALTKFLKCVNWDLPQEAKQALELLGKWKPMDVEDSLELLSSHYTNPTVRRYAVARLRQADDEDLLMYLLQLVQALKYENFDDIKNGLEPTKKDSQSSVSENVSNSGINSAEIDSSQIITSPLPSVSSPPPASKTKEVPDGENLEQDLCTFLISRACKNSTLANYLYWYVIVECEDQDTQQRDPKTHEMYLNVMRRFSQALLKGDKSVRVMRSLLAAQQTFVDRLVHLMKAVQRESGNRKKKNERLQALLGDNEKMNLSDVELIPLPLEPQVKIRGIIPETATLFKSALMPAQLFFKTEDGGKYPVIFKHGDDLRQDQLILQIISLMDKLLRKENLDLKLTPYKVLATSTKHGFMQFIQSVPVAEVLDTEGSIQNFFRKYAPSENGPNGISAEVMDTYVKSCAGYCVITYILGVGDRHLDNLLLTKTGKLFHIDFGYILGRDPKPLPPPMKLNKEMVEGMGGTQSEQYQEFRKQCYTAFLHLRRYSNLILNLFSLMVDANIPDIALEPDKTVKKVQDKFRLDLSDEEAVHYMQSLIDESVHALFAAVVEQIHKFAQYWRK

C[C@@H]1COCCN1c1cc(=O)n2c(n1)N(Cc1nc(C(F)(F)F)no1)CC[C@@H]2C(F)(F)F [Example 144, (R)-2-((R)-3-Methyl-morpholin-4-yl)-6-trifluoromethyl-9-(3-trifluoromethyl-[1,2,4]oxadiazol-5-yl-methyl)-6,7,8,9-tetrahydro-pyrimido[1,2-a]-pyrimidin-4-one]
IC50: < 10 nM

CC(=O)CN1CC[C@H](C(F)(F)F)n2c1nc(N1CCOC[C@H]1C)cc2=O [Example 145, (R)-2-((R)-3-Methyl-morpholin-4-yl)-9-(2-oxopropyl)-6-trifluoromethyl-6,7,8,9-tetrahydro-pyrimido[1,2-a]-pyrimidin-4-one]
IC50: 10 to 100 nM

Cc1nocc1CN1CC[C@H](C(F)(F)F)n2c1nc(N1CCOC[C@H]1C)c(F)c2=O [Example 146, (R)-3-Fluoro-9-(3-methylisoxazol-4-yl-methyl)-2-((R)-3-methylmorpholin-4-yl)-6-trifluoromethyl-6,7,8,9-tetrahydro-pyrimido[1,2-a]-pyrimidin-4-one]
IC50: < 10 nM

C[C@@H]1COCCN1c1nc2n(c(=O)c1F)[C@@H](C(F)(F)F)CCN2Cc1nc(C2CC2)no1 [Example 147, (R)-9-(3-Cyclopropyl-[1,2,4]oxadiazol-5-yl-methyl)-3-fluoro-2-((R)-3-methyl-morpholin-4-yl)-6-trifluoromethyl-6,7,8,9-tetrahydro-pyrimido[1,2-a]-pyrimidin-4-one]
IC50: < 10 nM

CC(=O)CN1CC[C@H](C(F)(F)F)n2c1nc(N1CCOC[C@H]1C)c(F)c2=O [Example 148, (R)-3-Fluoro-2-((R)-3-methylmorpholin-4-yl)-9-(2-oxopropyl)-6-trifluoromethyl-6,7,8,9-tetrahydro-pyrimido[1,2-a]-pyrimidin-4-one]
IC50: 10 to 100 nM

Cc1noc(CN2CC[C@H](C(F)(F)F)n3c2nc(N2CCOC[C@H]2C)c(F)c3=O)n1 [Example 149, (R)-3-Fluoro-2-((R)-3-methylmorpholin-4-yl)-9-(3-methyl-[1,2,4]oxadiazol-5-yl-methyl)-6-trifluoromethyl-6,7,8,9-tetrahydro-pyrimido[1,2-a]-pyrimidin-4-one]
IC50: < 10 nM

CC1(C)COCCN1c1cc(=O)n2c(n1)N(CC(=O)c1ccccc1)[C@H](C(F)(F)F)CC2 [Example 150, (S)-2-(3,3-Dimethyl-morpholin-4-yl)-9-(2-oxo-2-phenylethyl)-8-trifluoromethyl-6,7,8,9-tetrahydro-pyrimido[1,2-a]-pyrimidin-4-one]
IC50: 10 to 100 nM

C[C@@H]1COC[C@H](C)N1c1cc(=O)n2c(n1)N(Cc1ccc(Cl)s1)[C@H](C(F)(F)F)CC2 [Example 151, (S)-9-(5-Chloro-thiophen-2-ylmethyl)-2-((3S,5R)-3,5-dimethylmorpholin-4-yl)-8-trifluoromethyl-6,7,8,9-tetrahydro-pyrimido[1,2-a]-pyrimidin-4-one]
IC50: 10 to 100 nM

C[C@@H]1COC[C@@H](C)N1c1cc(=O)n2c(n1)N(Cc1ccnn1C(F)F)[C@H](C(F)(F)F)CC2 [Example 154, (S)-9-(2-Difluoromethyl-2H-pyrazol-3-ylmethyl)-2-((3R,5R)-3,5-dimethyl-morpholin-4-yl)-8-trifluoromethyl-6,7,8,9-tetrahydro-pyrimido[1,2-a]-pyrimidin-4-one]
IC50: < 10 nM

Cc1cc(CN2c3nc(N4[C@H](C)COC[C@H]4C)cc(=O)n3CC[C@H]2C(F)(F)F)on1 [Example 155, (S)-2-((3R,5R)-3,5-Dimethylmorpholin-4-yl)-9-(3-methyl-isoxazol-5-ylmethyl)-8-trifluoromethyl-6,7,8,9-tetrahydro-pyrimido[1,2-a]-pyrimidin-4-one]
IC50: < 10 nM

C[C@@H]1COC[C@@H](C)N1c1cc(=O)n2c(n1)N(Cc1ccc(Cl)nc1)[C@H](C(F)(F)F)CC2 [Example 156, (S)-9-(6-Chloro-pyridin-3-ylmethyl)-2-((3R,5R)-3,5-dimethyl-morpholin-4-yl)-8-trifluoromethyl-6,7,8,9-tetrahydro-pyrimido[1,2-a]-pyrimidin-4-one]
IC50: 10 to 100 nM

C[C@@H]1COC[C@@H](C)N1c1cc(=O)n2c(n1)N(Cc1ccnc(Cl)c1)[C@H](C(F)(F)F)CC2 [Example 157, (S)-9-(2-Chloro-pyridin-4-ylmethyl)-2-((3R,5R)-3,5-dimethyl-morpholin-4-yl)-8-trifluoromethyl-6,7,8,9-tetrahydro-pyrimido[1,2-a]-pyrimidin-4-one]
IC50: < 10 nM

C[C@@H]1COC[C@@H](C)N1c1cc(=O)n2c(n1)N(Cc1ncco1)[C@H](C(F)(F)F)CC2 [Example 158, (S)-2-((3R,5R)-3,5-Dimethylmorpholin-4-yl)-9-oxazol-2-yl-methyl-8-trifluoromethyl-6,7,8,9-tetrahydro-pyrimido[1,2-a]-pyrimidin-4-one]
IC50: < 10 nM

C[C@@H]1COC[C@@H](C)N1c1cc(=O)n2c(n1)N(c1ccnc(Cl)c1)[C@H](C(F)(F)F)CC2 [Example 159, (S)-9-(2-Chloro-pyridin-4-yl)-2-((3R,5R)-3,5-dimethyl-morpholin-4-yl)-8-trifluoromethyl-6,7,8,9-tetrahydro-pyrimido[1,2-a]-pyrimidin-4-one]
IC50: < 10 nM

C[C@@H]1COC[C@@H](C)N1c1cc(=O)n2c(n1)N(c1cccnc1)[C@H](C(F)(F)F)CC2 [Example 160, (S)-2-((3R,5R)-3,5-Dimethylmorpholin-4-yl)-9-pyridin-3-yl-8-trifluoromethyl-6,7,8,9-tetrahydro-pyrimido[1,2-a]-pyrimidin-4-one]
IC50: < 10 nM

O=c1cc(N2CC3CCC(C2)O3)nc2n1CC[C@@H](C(F)(F)F)N2c1cc(F)cc(F)c1 [Example 161, (S)-9-(3,5-Difluoro-phenyl)-2-(8-oxa-3-azabicyclo[3.2.1]oct-3-yl)-8-trifluoromethyl-6,7,8,9-tetrahydro-pyrimido[1,2-a]-pyrimidin-4-one]
IC50: 10 to 100 nM

O=c1cc(N2CC3CCC(C2)O3)nc2n1CC[C@@H](C(F)(F)F)N2Cc1ccc(Cl)s1 [Example 162, (S)-9-(5-Chloro-thiophen-2-ylmethyl)-2-(8-oxa-3-aza-bicyclo[3.2.1]oct-3-yl)-8-trifluoromethyl-6,7,8,9-tetrahydro-pyrimido[1,2-a]-pyrimidin-4-one]
IC50: 10 to 100 nM

O=C(CN1c2nc(N3CC4CCC(C3)O4)cc(=O)n2CC[C@H]1C(F)(F)F)c1ccccc1 [Example 163, (S)-2-(8-Oxa-3-aza-bicyclo[3.2.1]oct-3-yl)-9-(2-oxo-2-phenyl-ethyl)-8-trifluoromethyl-6,7,8,9-tetrahydro-pyrimido[1,2-a]-pyrimidin-4-one]
IC50: < 10 nM

O=c1cc(N2CC3CCC(C2)O3)nc2n1CC[C@@H](C(F)(F)F)N2Cc1ccno1 [Example 164, (S)-9-Isoxazol-5-yl-methyl-2-(8-oxa-3-azabicyclo[3.2.1]oct-3-yl)-8-trifluoromethyl-6,7,8,9-tetrahydro-pyrimido[1,2-a]-pyrimidin-4-one]
IC50: 10 to 100 nM

O=c1cc(N2CC3CCC(C2)O3)nc2n1CC[C@@H](C(F)(F)F)N2Cc1cnc(Cl)s1 [Example 165, (S)-9-(2-Chloro-thiazol-5-ylmethyl)-2-(8-oxa-3-aza-bicyclo[3.2.1]oct-3-yl)-8-trifluoromethyl-6,7,8,9-tetrahydro-pyrimido[1,2-a]-pyrimidin-4-one]
IC50: 10 to 100 nM
